Laboratory results from publication PMC5390312, “Genetic visualization of protein interactions harnessing liquid phase transitions” (Scientific Reports, 2017).

Target: T1, X-linked inhibitor of apoptosis protein (XIAP) (Homo sapiens, UniProt P98170)
T1 construct: BIR3 domain (XIAP-AG fusion); with Smac N-terminal region (SmacNT-PB1), displaced
Test: Fluoppi high-content assay in HEK293 cells, Smac/XIAP dissociation
Type: cell-based

T1 sequence (P98170 241-356 limits assumed): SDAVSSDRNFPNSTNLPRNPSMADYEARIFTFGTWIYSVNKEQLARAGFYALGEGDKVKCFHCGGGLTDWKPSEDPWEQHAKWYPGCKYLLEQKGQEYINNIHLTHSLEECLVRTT
T1 sequence (Q9NR28 56-239 partner): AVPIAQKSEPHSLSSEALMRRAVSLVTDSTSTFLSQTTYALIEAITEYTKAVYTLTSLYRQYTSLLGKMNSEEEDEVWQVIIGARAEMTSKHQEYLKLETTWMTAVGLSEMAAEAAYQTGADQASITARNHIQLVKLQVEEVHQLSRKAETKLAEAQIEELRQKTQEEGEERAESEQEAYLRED

How did the IC50 turn out when CN[C@@H](C)C(=O)N[C@H]1CN(C(=O)CC(C)C)CC[C@H]2CC[C@@H](C(=O)NC(c3ccccc3)c3ccccc3)N2C1=O [AT-406] was run?
The IC50 was 9.2 ± 1.2 µM.
